Where two headings read alike, the source gives them in different places.
Tests used:
[1] = Population pharmacokinetic; assay type: in vivo, human; conditions: for AUC24,SS/Dose: AUC24,SS/total daily dose
25-gene IFN score = assay: Correlation of AUC24,SS with whole blood 25-gene IFN score; assay type: in vivo, human; conditions: subset (5) of CANDLE patients
serum IP-10 = assay: Correlation of AUC24,SS with serum CXCL10/IP-10 levels; assay type: in vivo, human; conditions: 189 observations in 18 patients, linear mixed model, p-value for slope 0.0002
[2] = cited from earlier work
[3] = popPK final model, 18 patients, oral
[4] = 18 patients, 54 patient-years of exposure

In the case of `CCS(=O)(=O)N1CC(CC#N)(n2cc(-c3ncnc4[nH]ccc34)cn2)C1` [baricitinib, Baricitinib], the “projected initial exposure (AUC24,SS) with proposed starting dose” value (“projected initial exposure (AUC24,SS)” below) ([1]; 20–40kg, eGFR ≥120 mL/min/1.73 m^2, initial dose 6 mg/day BID) is reported as 1077 to 2688 nM·h, the “projected initial exposure (AUC24,SS)” value ([1]; <20kg, eGFR ≥120 mL/min/1.73 m^2, initial dose 6 mg/day TID) is reported as 1769 to 2112 nM·h and the “projected initial exposure (AUC24,SS)” value ([1]; >40kg, eGFR ≥120 mL/min/1.73 m^2, initial dose 8 mg/day BID) is reported as 1082 to 1958 nM·h. For the same compound, the “Covariate effect of GFR on Clearance, parameter for GFR-CL (%SEE)” value ([1]; CL/Ftypical=9.74×(eGFR/146.82)^0.444) was 0.444 (24.8%), the “Covariate effect of Weight on V/F, parameter for WTV-V (%SEE)” value ([1]; V/Ftypical = 67.1 × e^0.0192·(WTV−27.2)) was 0.0192 (15.0%) and the “geometric mean AUC24,SS at clinically effective doses” value ([1]; all patients, final PK assessments) was ~ 2388 nM*h. For the same compound, the “dose proportionality of PK” value ([1]; dosing range of 1–14 mg daily) was “dose linearity”, the “AUC24,SS/Dose” value ([1]; eGFR ≥120 ml/min/1.73 m^2, 20–40kg (n=5), geometric mean (%CV)) was 292 nM·h/mg and the “AUC24,SS/Dose” value ([1]; eGFR ≥120 ml/min/1.73 m^2, <20kg (n=2), geometric mean (%CV)) was 322 nM·h/mg. For the same compound, the “AUC24,SS/Dose” value ([1]; eGFR ≥120 ml/min/1.73 m^2, >40kg (n=5), geometric mean (%CV)) was 193 nM·h/mg, the AUC ([1]; human, plasma, oral, 6 mg/day, AUC24,SS, eGFR <120 ml/min/1.73 m^2, <20kg (n=2), final PK visit, geometric mean (%CV)) was 3.08 µM·h and the CL/F ([1]; human, plasma, oral, 6.9 mg/day) was 5.33 mL/min/kg. The half-life ([1]; human, plasma, oral, 6.9 mg/day, t1/2, eGFR ≥120 ml/min/1.73 m^2, 20–40kg (n=5), final PK visit, geometric mean (%CV)) was 5 h, the CL/F ([1]; human, plasma, oral, 8 mg/day) was 9.33 mL/min/kg and the AUC ([1]; human, plasma, oral, 8 mg/day, AUC24,SS, eGFR ≥120 ml/min/1.73 m^2, <20kg (n=2), final PK visit, geometric mean (%CV)) was 2.58 µM·h. For the same compound, the Cmax ([1]; human, plasma, oral, 8 mg/day, eGFR ≥120 ml/min/1.73 m^2, <20kg (n=2), final PK visit, geometric mean (%CV)) was 171 nM, the half-life ([1]; human, plasma, oral, 8 mg/day, t1/2, eGFR ≥120 ml/min/1.73 m^2, <20kg (n=2), final PK visit, geometric mean (%CV)) was 4.4 h and the half-life ([1]; human, plasma, oral, 10 mg/day, t1/2, eGFR ≥120 ml/min/1.73 m^2, >40kg (n=5), final PK visit, geometric mean (%CV)) was 7 h. It also gave an AUC ([1]; human, plasma, oral, AUC24,SS, eGFR <120 ml/min/1.73 m^2, >40kg (n=3), final PK visit, geometric mean (%CV)) of 2.53 µM·h, an AUC ([1]; human, plasma, oral, AUC24,SS, eGFR ≥120 ml/min/1.73 m^2, 20–40kg (n=5), final PK visit, geometric mean (%CV)) of 2.02 µM·h and an AUC ([1]; human, plasma, oral, AUC24,SS, eGFR ≥120 ml/min/1.73 m^2, >40kg (n=5), final PK visit, geometric mean (%CV)) of 1.94 µM·h. It also gave a Cmax ([1]; human, plasma, oral, eGFR <120 ml/min/1.73 m^2, <20kg (n=2), final PK visit, geometric mean (%CV)) of 229 nM, a Cmax ([1]; human, plasma, oral, eGFR <120 ml/min/1.73 m^2, >40kg (n=3), final PK visit, geometric mean (%CV)) of 180 nM and a Cmax ([1]; human, plasma, oral, eGFR ≥120 ml/min/1.73 m^2, 20–40kg (n=5), final PK visit, geometric mean (%CV)) of 150 nM. It also gave a Cmax ([1]; human, plasma, oral, eGFR ≥120 ml/min/1.73 m^2, >40kg (n=5), final PK visit, geometric mean (%CV)) of 136 nM, a half-life ([1]; human, plasma, oral, estimated half-life, patient O3, >40 kg, eGFR 54–76 mL/min/1.73 m^2) of 17 to 19.2 h and an AUC ([1]; human, plasma, oral, geometric mean AUC24,SS at clinically effective doses, all patients, final PK assessments) of 2.39 µM·h. It also gave a half-life ([1]; human, plasma, oral, t1/2, eGFR <120 ml/min/1.73 m^2, <20kg (n=2), final PK visit, geometric mean (%CV)) of 4.8 h, a half-life ([1]; human, plasma, oral, t1/2, eGFR <120 ml/min/1.73 m^2, >40kg (n=3), final PK visit, geometric mean (%CV)) of 7.8 h and a Vd/F ([1]; human, plasma, po) of 67.1 L. For the same compound, the “Absorption duration D1, population estimate (%SEE)” value [1, 3] was 0.971 (14.8%) hr, the “Apparent Clearance CL/F, population estimate (%SEE)” value [1, 3] was 9.74 (9.57%) L/hr and the “AUC24,SS at which CANDLE patients normalized their IFN scores” value (25-gene IFN score) was 1500 to 2000 nM·h. The “slope of correlation of AUC24,SS with serum IP-10 levels” value (serum IP-10) was −0.197, the “patients who developed BK viremia” value [4] was 44% and the “patients with Herpes Zoster” value [4] was 1 patient. For the same compound, the “deaths during the program” value (mean exposure 35.4 months) was “No deaths”, the “most frequently reported TEAEs” value (over 54 patient-years) was “Upper respiratory tract infection” and the half-life ([2]; RA population) was 12.5 h. For the same compound, the half-life ([2]; healthy adult subjects) was 10 h, the “effect of renal impairment on Cmax” value ([2]; moderate and severe renal impairment, ref data on file, Eli Lilly and Company) was “minimal effect” and the half-life ([2]; psoriasis patients) was 12.8 h.

From PMC6089664 (Clinical pharmacology and therapeutics, 2017)
